Measurements as given in US8802597B2, “Herbicidal pyrimidines” (E I du Pont de Nemours and Company, priority 2003, dated 2014).
Where two headings read alike, the source gives them in different places.

Legend:
Assay type in all cases: in vivo
[1] = test system: goosegrass (Eleusine indica); experiment: Test C pre/postemergence; conditions: Eleusine indica; for pest or weed control at 31 g/ha: 31 g ai/ha; for pest or weed control at 62 g/ha: 62 g ai/ha; for pest or weed control at 125 g/ha: 125 g ai/ha; for pest or weed control at 250 g/ha: 250 g ai/ha; for pest or weed control at 500 g/ha: 500 g ai/ha
From the text: (§1) Seeds or nutlets of plant species selected from bermudagrass (Cynodon dactylon), Surinam grass (Brachiaria decumbens), cocklebur (Xanthium strumarium), corn (Zea mays), crabgrass (Digitaria sanguinalis), woolly cupgrass (Eriochloa villosa), giant foxtail (Setaria faberii), goosegrass (Eleusine indica), johnsongrass (Sorghum halepense), kochia (Kochia scoparia), lambsquarters (Chenopodium album), morningglory (Ipomoea coccinea), eastern black nightshade (Solanum ptycanthum), yellow nutsedge (Cyperus esculentus), pigweed (Amaranthus retroflexus), common ragweed (Ambrosia elatior), soybean (Glycine max), common (oilseed) sunflower (Helianthus annuus), and velvetleaf (Abutilon theophrasti) were planted and treated preemergence with test chemicals formulated in a non-phytotoxic solvent mixture which included a surfactant.
(§2) At the same time, plants selected from these crop and weed species and also winter barley (Hordeum vulgare), blackgrass (Alopecurus myosuroides), canarygrass (Phalaris minor), chickweed (Stellaria media), downy brome (Bromus tectorum), green foxtail (Setaria viridis), Italian ryegrass (Lolium multiflorum), wheat (Triticum aestivum), wild oat (Avena fatua) and windgrass (Apera spica-venti) were treated with postemergence applications of some of the test chemicals formulated in the same manner. Plants ranged in height from 2 to 18 cm (1- to 4-leaf stage) for postemergence treatments. Plant species in the flooded paddy test consisted of rice (Oryza sativa), umbrella sedge (Cyperus difformis), duck salad (Heteranthera limosa) and barnyardgrass (Echinochloa crus-galli) grown to the 2-leaf stage for testing. Treated plants and controls were maintained in a greenhouse for 12 to 14 days, after which time all species were compared to controls and visually evaluated. Plant response ratings, summarized in Table C, are based on a scale of 0 to 100 where 0 is no effect and 100 is complete control. A dash (-) response means no test result.

[2] = test system: lambsquarters (Chenopodium album); experiment: Test C pre/postemergence; conditions: Chenopodium album; for pest or weed control at 31 g/ha: 31 g ai/ha; for pest or weed control at 62 g/ha: 62 g ai/ha; for pest or weed control at 125 g/ha: 125 g ai/ha; for pest or weed control at 250 g/ha: 250 g ai/ha; for pest or weed control at 500 g/ha: 500 g ai/ha
From the text: as §1, §2

[3] = test system: giant foxtail (Setaria faberii); experiment: Test C pre/postemergence; conditions: Setaria faberi; for pest or weed control at 125 g/ha: 125 g ai/ha; for pest or weed control at 31 g/ha: 31 g ai/ha; for pest or weed control at 62 g/ha: 62 g ai/ha; for pest or weed control at 250 g/ha: 250 g ai/ha; for pest or weed control at 500 g/ha: 500 g ai/ha
From the text: as §1, §2

[4] = test system: velvetleaf (Abutilon theophrasti); experiment: Test C pre/postemergence; conditions: Abutilon theophrasti; for pest or weed control at 31 g/ha: 31 g ai/ha; for pest or weed control at 62 g/ha: 62 g ai/ha; for pest or weed control at 125 g/ha: 125 g ai/ha; for pest or weed control at 250 g/ha: 250 g ai/ha; for pest or weed control at 500 g/ha: 500 g ai/ha
From the text: as §1, §2

[5] = test system: chickweed (Stellaria media); experiment: Test C postemergence; conditions: Stellaria media, post-emergence; for pest or weed control at 62 g/ha: 62 g ai/ha, scale 0 to 100 (0 no effect, 100 complete control), read-out: Chickweed plant response rating; for pest or weed control at 125 g/ha: 125 g ai/ha; for pest or weed control at 250 g/ha: 250 g ai/ha
From the text: as §1, §2

[6] = post-emergence, Postemergence, scale 0 to 100 (0 no effect, 100 complete control), read-out: Goosegrass plant response rating
[7] = post-emergence, Postemergence, scale 0 to 100, read-out: Plant response rating, Goosegrass
[8] = pre-emergence, Preemergence, scale 0 to 100, 0 no effect, 100 complete control, read-out: Plant response rating, Goosegrass
[9] = pre-emergence, Preemergence, scale 0 to 100, read-out: Plant response rating, Goosegrass
[10] = post-emergence, Postemergence, scale 0 to 100 (0 no effect, 100 complete control), read-out: Lambsquarters plant response rating
[11] = post-emergence, Postemergence, scale 0 to 100, read-out: Plant response rating, Lambsquarters
[12] = pre-emergence, Preemergence, scale 0 to 100, 0 no effect, 100 complete control, read-out: Plant response rating, Lambsquarters
[13] = pre-emergence, Preemergence, scale 0 to 100, read-out: Plant response rating, Lambsquarters
[14] = post-emergence, Postemergence, scale 0 to 100 (0 no effect, 100 complete control), read-out: Foxtail, Giant plant response rating
[15] = post-emergence, Postemergence, scale 0 to 100, read-out: Plant response rating, Foxtail, Giant
[16] = pre-emergence, Preemergence, scale 0 to 100, 0 no effect, 100 complete control, read-out: Plant response rating, Foxtail, Giant
[17] = pre-emergence, Preemergence, scale 0 to 100, read-out: Plant response rating, Foxtail, Giant
[18] = post-emergence, Postemergence, scale 0 to 100 (0 no effect, 100 complete control), read-out: Velvetleaf plant response rating
[19] = post-emergence, Postemergence, scale 0 to 100, read-out: Plant response rating, Velvetleaf
[20] = pre-emergence, Preemergence, scale 0 to 100, 0 no effect, 100 complete control, read-out: Plant response rating, Velvetleaf
[21] = pre-emergence, Preemergence, scale 0 to 100, read-out: Plant response rating, Velvetleaf
[22] = scale 0 to 100, read-out: Plant response rating, Chickweed

| Structure (SMILES) | pest or weed control at 62 g/ha [1, 6] [%] | pest or weed control at 125 g/ha [1, 6] [%] | pest or weed control at 250 g/ha [1, 7] [%] | pest or weed control at 62 g/ha [1, 8] [%] | pest or weed control at 125 g/ha [1, 9] [%] | pest or weed control at 250 g/ha [1, 9] [%] | pest or weed control at 62 g/ha [2, 10] [%] | pest or weed control at 125 g/ha [2, 10] [%] | pest or weed control at 250 g/ha [2, 11] [%] | pest or weed control at 62 g/ha [2, 12] [%] | pest or weed control at 125 g/ha [2, 13] [%] | pest or weed control at 250 g/ha [2, 13] [%] | pest or weed control at 125 g/ha [3, 14] [%] | pest or weed control at 62 g/ha [3, 14] [%] | pest or weed control at 250 g/ha [3, 15] [%] | pest or weed control at 62 g/ha [3, 16] [%] | pest or weed control at 125 g/ha [3, 17] [%] | pest or weed control at 250 g/ha [3, 17] [%] | pest or weed control at 62 g/ha [4, 18] [%] | pest or weed control at 125 g/ha [4, 18] [%] | other results |
| --- | --- | --- | --- | --- | --- | --- | --- | --- | --- | --- | --- | --- | --- | --- | --- | --- | --- | --- | --- | --- | --- |
| COC(=O)c1nc(C2CC2)nc(N)c1Cl [Compound 9, methyl 6-amino-5-chloro-2-cyclopropyl-4-pyrimidinecarboxylate] | 0 | 40 | 45 | 0 | 20 | 50 | 95 | 100 | 100 | 100 | 100 | 100 | 75 | 65 | 80 | 0 | 75 | 80 | 75 | 80 | pest or weed control at 31 g/ha ([1]; post-emergence, Postemergence, read-out: Plant response rating (scale of 0 to 100), Goosegrass): 0%; pest or weed control at 31 g/ha [1, 8]: 0%; pest or weed control at 31 g/ha ([2]; post-emergence, Postemergence, read-out: Plant response rating (scale of 0 to 100), Lambsquarters): 90%; pest or weed control at 31 g/ha [2, 12]: 95%; pest or weed control at 31 g/ha ([3]; post-emergence, Postemergence, read-out: Plant response rating (scale of 0 to 100), Foxtail, Giant): 60%; pest or weed control at 31 g/ha [3, 16]: 0%; pest or weed control at 31 g/ha ([4]; post-emergence, Postemergence, read-out: Plant response rating (scale of 0 to 100), Velvetleaf): 0%; pest or weed control at 250 g/ha [4, 19]: 95%; pest or weed control at 31 g/ha [4, 20]: 70%; pest or weed control at 62 g/ha [4, 20]: 95%; pest or weed control at 125 g/ha [4, 21]: 100%; pest or weed control at 250 g/ha [4, 21]: 100%; pest or weed control at 31 g/ha ([5]; 31 g ai/ha, read-out: Plant response rating (scale of 0 to 100), Chickweed): 15%; pest or weed control at 62 g/ha [5]: 85%; pest or weed control at 125 g/ha [5, 22]: 100%; pest or weed control at 250 g/ha [5, 22]: 100% |
| CCOC(=O)c1nc(C2CC2)nc(N)c1Cl [Compound 4, ethyl 6-amino-5-chloro-2-cyclopropyl-4-pyrimidinecarboxylate] | 0 | 20 | 65 | 0 | 25 | 55 | 100 | 100 | 100 | 95 | 100 | 100 | 75 | 60 | 85 | 0 | 40 | 75 | 80 | 100 | pest or weed control at 500 g/ha [1, 7]: 75%; pest or weed control at 500 g/ha [1, 9]: 65%; pest or weed control at 500 g/ha [2, 11]: 100%; pest or weed control at 500 g/ha [2, 13]: 100%; pest or weed control at 500 g/ha [3, 15]: 95%; pest or weed control at 500 g/ha [3, 17]: 85%; pest or weed control at 250 g/ha [4, 19]: 100%; pest or weed control at 500 g/ha [4, 19]: 100%; pest or weed control at 62 g/ha [4, 20]: 75%; pest or weed control at 125 g/ha [4, 21]: 95%; pest or weed control at 250 g/ha [4, 21]: 95%; pest or weed control at 500 g/ha [4, 21]: 100%; pest or weed control at 62 g/ha [5]: 30%; pest or weed control at 125 g/ha [5, 22]: 85%; pest or weed control at 250 g/ha [5, 22]: 100%; pest or weed control at 500 g/ha ([5]; 500 g ai/ha, scale 0 to 100, read-out: Plant response rating, Chickweed): 100% |
